≈ marks a conversion by molar mass, not a printed value. Read-outs that look alike come from different tables or passages of the source.
Tests used:
[1] = system: S.aureus; test: Whole cell antimicrobial screen (MIC, NCCLS microdilution); type: cell-based; conditions: for MIC: Staphylococcus aureus
Method: Compounds were tested for antimicrobial activity against a panel of organisms according to standard procedures described by the National Committee for Clinical Laboratory Standards (NCCLS document M7-A3, Vol. 13, No. 25, 1993/NCCLS document M27-P, Vol. 12, No. 25, 1992). Compounds were dissolved in 100% DMSO and were diluted to the final reaction concentration (0.1 μg/ml-500 μg/ml) in microbial growth media. In all cases the final concentration of DMSO incubated with cells is less than or equal to 1%. For minimum inhibitory concentration (MIC) calculations, 2-fold dilutions of compounds were added to wells of a microtiter plate containing 5×10^4 bacteria or fungal cells in a final volume of 200 lambda of an appropriate media (Mueller-Hinton Broth; Haemophilus Test Media; Mueller-Hinton Broth+5% Sheep Blood; or […]). Plates were incubated overnight at an appropriate temperature (30° C.-37° C.) and optical densities (measure of cell growth) were measured using a commercial plate reader. The MIC value is defmed as the lowest compound concentration inhibiting growth of the test organism.

[2] = target: T1, E.faecalis PheRS (Enterococcus faecalis, UniProt Q836J6); test: aaRS charging and trichloroacetic acid precipitation assay, IC50 determination; type: biochemical; conditions: 20 min preincubation at 25 C; Km concentrations of substrates; stereoisomers tested separately
T1 sequence (Q836J6 1-348): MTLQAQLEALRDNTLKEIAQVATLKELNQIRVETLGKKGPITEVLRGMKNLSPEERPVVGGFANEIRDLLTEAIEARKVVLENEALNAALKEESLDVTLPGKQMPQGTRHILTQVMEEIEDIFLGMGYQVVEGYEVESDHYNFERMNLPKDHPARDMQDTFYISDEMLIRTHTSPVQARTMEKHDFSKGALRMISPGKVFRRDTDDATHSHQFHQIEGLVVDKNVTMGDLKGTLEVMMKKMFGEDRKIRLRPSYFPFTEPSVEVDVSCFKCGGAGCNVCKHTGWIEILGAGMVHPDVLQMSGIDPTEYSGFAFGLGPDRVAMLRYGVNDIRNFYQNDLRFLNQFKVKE
T1 sequence (Q836J5 1-807 partner): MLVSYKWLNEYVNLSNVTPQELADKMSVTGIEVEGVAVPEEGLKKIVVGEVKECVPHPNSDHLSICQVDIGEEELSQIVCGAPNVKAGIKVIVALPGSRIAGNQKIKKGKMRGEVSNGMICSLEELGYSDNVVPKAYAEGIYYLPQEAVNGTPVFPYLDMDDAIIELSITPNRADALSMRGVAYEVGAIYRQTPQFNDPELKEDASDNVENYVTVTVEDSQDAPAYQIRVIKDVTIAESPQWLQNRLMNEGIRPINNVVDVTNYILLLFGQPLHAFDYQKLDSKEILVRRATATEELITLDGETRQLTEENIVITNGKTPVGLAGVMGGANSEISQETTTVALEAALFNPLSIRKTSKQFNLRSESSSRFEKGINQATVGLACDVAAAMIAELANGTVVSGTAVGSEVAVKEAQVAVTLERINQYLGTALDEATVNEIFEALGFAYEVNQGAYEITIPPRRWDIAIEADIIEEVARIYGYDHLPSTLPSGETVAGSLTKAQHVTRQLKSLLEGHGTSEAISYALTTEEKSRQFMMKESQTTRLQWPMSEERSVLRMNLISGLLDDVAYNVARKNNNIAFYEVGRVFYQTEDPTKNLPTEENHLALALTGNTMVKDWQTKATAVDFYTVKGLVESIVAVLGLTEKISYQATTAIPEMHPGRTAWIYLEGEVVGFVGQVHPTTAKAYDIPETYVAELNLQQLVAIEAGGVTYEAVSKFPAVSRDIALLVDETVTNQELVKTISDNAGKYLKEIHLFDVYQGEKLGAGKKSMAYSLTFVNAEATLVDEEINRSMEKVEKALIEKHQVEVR
Method: IC50 determinations for the aminoacyl-tRNA synthetases (aaRS) isolated from pathogen or HeLa cells were carried out using a modification of the aaRS charging and trichloroacetic acid precipitation assay described previously (see examples: D. Kern et. al., Biochemie, 61, 1257-1272 (1979) and J. Gilbart et. al. Antimicrobial Agents and Chemotherapy, 37(1), 32-38 (1993)). The aaRS enzymes were prepared via standard cloning and expression methods and partially purified or partially purified from pathogen and HeLa cell extracts. The activity of each aaRS enzyme was standardized as trichloroacetic acid precipitable counts (cpm) obtained at 10 minutes reaction time at Km concentrations of substrates. For practical purposes, the minimal acceptable value is approximately 2000 cpm per 10 minute reaction.
Test compounds were typically present as serial dilutions in concentration ranges of 0.35 nM to 35 μM. Test compound solutions were prepared by dissolving test compound in 100% dimethyl sulfoxide and diluting to the final concentration with 50 mM HEPES, pH 7.5. IC50 determinations were typically performed in duplicate with each experiment containing 4-8 concentrations of inhibitor along with two no inhibitor controls.
IC50 incubations were initiated by supplementing the preincubation mixture to a final assay concentration of 10 mM MgCl2, 30 mM KCl, 10 mM KF, 50 mM HEPES (pH 7.5), […], 2-20 μM [^3 H] amino acid, and 90-180 μM crude tRNA in a final volume of 35 microliters. The reaction was incubated at 25° C. for 5-20 minutes. At specified time points a 15 microliter aliquot was removed and added to a well of a Millipore filtration plate (Multiscreen-FB, MAFB NOB 10) containing 100 microliters of cold 5% (wt/vol) trichloroacetic acid. Trichloroacetic acid precipitable material was collected by filtration on Millipore Multiscreen filtration station, washed twice with cold 5% trichloroacetic acid, twice with water, and dried. Plates were typically allowed to air dry for several hours or they were baked at 50° C. in a vacuum oven for 30 minutes. The radioactivity on the dried plates was quantitated by the addition of Packard Microscint-20 to the wells and counting with a Packard TopCount scintillation counter.
Inhibitor activity was typically reported as a percentage of the control aaRS activity. The IC50 value was determined by plotting per cent activity versus compound concentration in the assay and identifying the concentration at which 50% of the activity was remaining.
Stereoisomers are tested separately and referred to by the suffix a-d.

[3] = 2-fold dilutions, overnight incubation, optical density readout
[4] = 2-fold dilutions, overnight incubation, optical density readout, read-out: MIC S.aureus

O=C(Nc1ccc(Cl)c(Cl)c1)C1C(c2ccccc2)OC23C(O)c4ccccc4C2OC(=O)C13 (single isomer, unassigned) [Example 1a]
MIC S.aureus [1, 3]: 3.1 µg/mL (≈ 6.25 µM) | IC50 [2]: 0.17 µM

O=C(Nc1ccc(Cl)c(Cl)c1)C1C(c2ccccc2)OC23C(O)c4ccccc4C2OC(=O)C13 (single isomer, unassigned) [Example 1b]
MIC S.aureus [1, 3]: 6.25 µg/mL (≈ 12.6 µM) | IC50 [2]: 0.47 µM

O=C(Nc1ccc(Cl)c(Cl)c1)C1C(c2ccccc2)NC23C(O)c4ccccc4C2OC(=O)C13 (single isomer, unassigned) [Example 3b]
MIC [1, 4]: 25 µg/mL (≈ 50.5 µM) | IC50 [2]: 4.3 µM

O=C(Nc1ccc(Cl)c(Cl)c1)C1C(c2ccccc2)NC23C(O)c4ccccc4C2OC(=O)C13 (single isomer, unassigned) [Example 3c]
MIC S.aureus [1, 3]: 12.5 µg/mL (≈ 25.2 µM) | IC50 [2]: 0.4 µM

O=C(Nc1ccc(Cl)c(Cl)c1)C1C(c2ccccc2)OC23C(=O)c4ccccc4C2OC(=O)C13 (centres unmarked) [Example 2]
MIC [1, 4]: > 100 µg/mL | IC50 [2]: 3.08 µM

Cc1ccc(NC(=O)C2C(c3ccccc3)OC34C(O)c5ccccc5C3OC(=O)C24)cc1Cl (centres unmarked) [Example 4a]
MIC S.aureus [1, 3]: > 100 µg/mL | IC50 [2]: 1.48 µM

Cc1ccc(NC(=O)C2C(c3ccccc3)OC34C(O)c5ccccc5C3OC(=O)C24)cc1Cl (centres unmarked) [Example 4b]
MIC S.aureus [1, 3]: > 100 µg/mL | IC50 [2]: 8.23 µM

Cc1ccc(NC(=O)C2C(c3ccccc3)OC34C(O)c5ccccc5C3OC(=O)C24)cc1Cl (centres unmarked) [Example 4c]
MIC S.aureus [1, 3]: 25 µg/mL (≈ 52.5 µM) | IC50 [2]: 33.2 µM

O=C(Nc1ccc(Cl)c(Cl)c1)C1C(c2ccccc2)OC23C(=NO)c4ccccc4C2OC(=O)C13 (centres unmarked) [Example 5]
MIC ([1]; read-out: MIC S.aureus, 2-fold dilutions, overnight incubation, optical density readout): < 100 µg/mL

Reference: patent publication US6153645A, “Heterocycles as antimicrobial agents” (Cubist Pharmaceuticals, Inc., priority 1999, dated 2000)
